Five compounds from PMC8718961, “The CbbQO-type rubisco activases encoded in carboxysome gene clusters can activate carboxysomal form IA rubiscos” (The Journal of Biological Chemistry, 2021) can be followed below.

In experiment [1] the target is T1, HnLS (form IA^C carboxysomal rubisco) (Halothiobacillus neapolitanus, UniProt O85040).
T1 construct: gene cbbL; recombinant E. coli BL21(DE3), pET30bHnLS (NdeI/HindIII); large and small subunits; anion exchange and size exclusion
Put plainly: inhibited ECM-CABP (ECMC) complex, reactivation by CbbQO activase, coupled spectrophotometric rubisco assay. It is filed as biochemical. The note with it: 20 mM NaHCO3, Mg2+, 25 °C; PEG 3350; active site, tight-binding transition-state analog.

Experiment [2] has as its target T2, AfL2S2 (form IA^C carboxysomal rubisco) (Acidithiobacillus ferrooxidans, UniProt B7JB30, V471A/N472H/R473K).
T2 construct: gene cbbL1; recombinant E. coli BL21(DE3); large and small subunits; anion exchange and size exclusion
Described as above. It is filed as biochemical. The note with it: 20 mM NaHCO3, Mg2+, 25 °C; PEG 3350; active site, tight-binding transition-state analog; printed as VNR C terminus substituted with AHK.

In experiment [3] the target is T3, AfL2S2 (form IA^C carboxysomal rubisco) (Acidithiobacillus ferrooxidans, UniProt B7JB30).
T3 construct: gene cbbL1; recombinant E. coli BL21(DE3); large and small subunits; anion exchange and size exclusion
T3 sequence (B7JB30 whole entry): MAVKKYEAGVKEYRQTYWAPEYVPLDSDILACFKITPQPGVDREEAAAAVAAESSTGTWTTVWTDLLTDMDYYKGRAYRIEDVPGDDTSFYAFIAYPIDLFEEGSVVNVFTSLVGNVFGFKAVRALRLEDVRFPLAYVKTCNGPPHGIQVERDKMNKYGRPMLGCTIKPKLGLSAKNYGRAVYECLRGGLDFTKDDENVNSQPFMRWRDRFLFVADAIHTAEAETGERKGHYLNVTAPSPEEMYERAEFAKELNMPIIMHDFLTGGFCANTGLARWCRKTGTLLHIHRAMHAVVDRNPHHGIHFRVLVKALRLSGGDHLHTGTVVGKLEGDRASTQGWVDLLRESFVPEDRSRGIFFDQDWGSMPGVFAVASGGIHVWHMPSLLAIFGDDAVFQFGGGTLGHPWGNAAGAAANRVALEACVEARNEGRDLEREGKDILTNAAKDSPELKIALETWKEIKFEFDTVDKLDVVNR
T3 sequence (B7JB29 1-110 partner): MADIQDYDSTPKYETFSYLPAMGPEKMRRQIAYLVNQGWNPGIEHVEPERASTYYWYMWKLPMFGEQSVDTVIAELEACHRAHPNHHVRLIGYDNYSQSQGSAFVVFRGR
The experiment is described as above. It is filed as biochemical. The note with it: 20 mM NaHCO3, Mg2+, 25 °C; PEG 3350; active site, tight-binding transition-state analog.

The target of experiment [4] is T4, AfL2S2 (form IA^C carboxysomal rubisco) (Acidithiobacillus ferrooxidans, UniProt B7JB30, N472H).
T4 construct: gene cbbL1; recombinant E. coli BL21(DE3); large and small subunits; anion exchange and size exclusion
T4 sequence (B7JB30 whole entry N472H): as the sequence (B7JB30 whole entry) above, with N472H counted along it
T4 sequence (B7JB29 entry or part of it, stated change not applied, further chain): as the sequence (B7JB29 1-110 partner) above
Described as above. It is filed as biochemical. The settings on record: 20 mM NaHCO3, Mg2+, 25 °C; PEG 3350; active site, tight-binding transition-state analog.

The target of experiment [5] is T2, AfL2S2 (form IA^C carboxysomal rubisco). Briefly: spontaneous RuBP release from ER complex. It is filed as biochemical. The note with it: apoenzyme with RuBP; 25 °C; active site; printed as VNR C terminus substituted with AHK.
The next experiment addresses T5, SynLS (form IB rubisco) (Synechococcus elongatus, UniProt P00880).
T5 construct: gene cbbL; large and small subunits
Put plainly: RuBP release rate from apo-rubisco-RuBP (ER) complex, carboxylation time course. It is filed as biochemical. The settings on record: apoenzyme with 0.4 mM RuBP; assay 50 mM NaHCO3, 1 mM RuBP, 25 °C; active site.

Experiment [6] addresses T3, AfL2S2 (form IA^C carboxysomal rubisco). Described as above. The settings on record: apoenzyme with 0.4 mM RuBP; assay 50 mM NaHCO3, 1 mM RuBP, 25 °C; active site. It is filed as biochemical.
For experiment [7], the target named is T1, HnLS (form IA^C carboxysomal rubisco). Described as above. It is filed as biochemical. The settings on record: apoenzyme with 0.4 mM RuBP; assay 50 mM NaHCO3, 1 mM RuBP, 25 °C; active site.
For experiment [8], the target named is T6, AfL1S1 (form IA^Q rubisco) (Acidithiobacillus ferrooxidans, UniProt B7JA24).
T6 construct: gene cbbL2; recombinant E. coli BL21(DE3); large and small subunits; anion exchange and size exclusion
T6 sequence (B7JA24 whole entry): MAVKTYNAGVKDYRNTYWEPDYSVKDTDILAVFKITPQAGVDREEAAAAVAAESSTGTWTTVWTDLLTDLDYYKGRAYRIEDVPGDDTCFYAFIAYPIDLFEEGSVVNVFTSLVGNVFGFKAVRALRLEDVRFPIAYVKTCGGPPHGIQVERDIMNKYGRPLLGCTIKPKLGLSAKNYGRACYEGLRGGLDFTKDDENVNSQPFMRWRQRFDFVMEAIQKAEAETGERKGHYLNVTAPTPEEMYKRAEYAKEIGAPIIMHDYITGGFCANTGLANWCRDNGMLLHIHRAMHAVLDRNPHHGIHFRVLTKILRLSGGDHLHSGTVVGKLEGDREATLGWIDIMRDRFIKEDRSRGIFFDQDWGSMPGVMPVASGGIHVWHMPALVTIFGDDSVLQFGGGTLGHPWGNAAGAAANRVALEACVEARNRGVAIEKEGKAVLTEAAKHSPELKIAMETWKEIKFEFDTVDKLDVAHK
T6 sequence (B7JA25 1-118 partner): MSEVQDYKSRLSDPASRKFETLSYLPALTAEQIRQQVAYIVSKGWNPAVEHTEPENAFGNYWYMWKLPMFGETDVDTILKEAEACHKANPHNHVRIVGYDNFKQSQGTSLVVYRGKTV
The description is as above. It is filed as biochemical. The note with it: apoenzyme with 0.4 mM RuBP; assay 50 mM NaHCO3, 1 mM RuBP, 25 °C; active site.

Experiment [9] has as its target T4, AfL2S2 (form IA^C carboxysomal rubisco). Briefly: spontaneous RuBP release from ER complex. It is filed as biochemical. The settings on record: apoenzyme with RuBP; 25 °C; active site.
The target in experiment [10] is T7, AfQ1O1 (form IA^Q-associated CbbQO rubisco activase) (Acidithiobacillus ferrooxidans, UniProt B7JA26).
T7 construct: gene cbbQ-1; recombinant E. coli BL21(DE3), pHueAfCbbQ1 and pBad33UbAfcbbO1; CbbQ hexamer with CbbO; with CbbO protein (von Willebrand factor A domain, rubisco activase adaptor)
T7 sequence (B7JA26 1-267): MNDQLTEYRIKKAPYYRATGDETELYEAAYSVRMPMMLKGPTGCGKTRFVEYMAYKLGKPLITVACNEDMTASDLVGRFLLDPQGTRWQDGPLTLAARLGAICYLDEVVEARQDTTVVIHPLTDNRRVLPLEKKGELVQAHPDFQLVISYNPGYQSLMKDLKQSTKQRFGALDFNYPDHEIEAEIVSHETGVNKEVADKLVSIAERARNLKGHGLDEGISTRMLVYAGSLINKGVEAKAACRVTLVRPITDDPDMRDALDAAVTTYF
T7 sequence (B7JA27 1-772 partner): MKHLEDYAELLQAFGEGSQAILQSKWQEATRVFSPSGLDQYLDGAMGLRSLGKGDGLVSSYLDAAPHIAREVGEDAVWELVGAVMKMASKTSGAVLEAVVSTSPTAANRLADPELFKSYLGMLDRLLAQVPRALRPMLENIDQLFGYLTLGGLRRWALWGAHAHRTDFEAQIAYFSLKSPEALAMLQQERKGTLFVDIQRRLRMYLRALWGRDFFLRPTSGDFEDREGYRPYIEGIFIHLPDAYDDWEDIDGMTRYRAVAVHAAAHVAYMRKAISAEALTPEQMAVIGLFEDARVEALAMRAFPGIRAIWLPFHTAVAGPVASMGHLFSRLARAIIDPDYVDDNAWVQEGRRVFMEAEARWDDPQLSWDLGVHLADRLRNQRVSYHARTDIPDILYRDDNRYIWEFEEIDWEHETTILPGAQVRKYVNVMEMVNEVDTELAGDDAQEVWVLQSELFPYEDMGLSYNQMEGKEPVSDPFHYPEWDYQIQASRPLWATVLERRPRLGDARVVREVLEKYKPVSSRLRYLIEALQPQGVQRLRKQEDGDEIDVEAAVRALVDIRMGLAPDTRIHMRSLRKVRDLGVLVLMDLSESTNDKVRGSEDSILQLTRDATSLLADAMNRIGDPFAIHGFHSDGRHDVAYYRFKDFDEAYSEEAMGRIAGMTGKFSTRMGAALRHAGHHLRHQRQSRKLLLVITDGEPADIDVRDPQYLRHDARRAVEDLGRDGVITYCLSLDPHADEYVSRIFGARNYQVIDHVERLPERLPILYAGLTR
Briefly: ATPase, coupled spectrophotometric assay. The settings on record: 0.27 µM oligomer, 25 °C. It is filed as biochemical.

Experiment [11] deals with T8, AfQ3O3 (carboxysomal CbbQO rubisco activase) (Acidithiobacillus ferrooxidans, UniProt B7JB17).
T8 construct: gene p30; recombinant E. coli BL21(DE3), pHue and pBad33 (ubiquitin-type) vectors; CbbQ hexamer with CbbO; with CbbO protein (von Willebrand factor A domain, rubisco activase adaptor)
T8 sequence (B7JB16 entry or part of it): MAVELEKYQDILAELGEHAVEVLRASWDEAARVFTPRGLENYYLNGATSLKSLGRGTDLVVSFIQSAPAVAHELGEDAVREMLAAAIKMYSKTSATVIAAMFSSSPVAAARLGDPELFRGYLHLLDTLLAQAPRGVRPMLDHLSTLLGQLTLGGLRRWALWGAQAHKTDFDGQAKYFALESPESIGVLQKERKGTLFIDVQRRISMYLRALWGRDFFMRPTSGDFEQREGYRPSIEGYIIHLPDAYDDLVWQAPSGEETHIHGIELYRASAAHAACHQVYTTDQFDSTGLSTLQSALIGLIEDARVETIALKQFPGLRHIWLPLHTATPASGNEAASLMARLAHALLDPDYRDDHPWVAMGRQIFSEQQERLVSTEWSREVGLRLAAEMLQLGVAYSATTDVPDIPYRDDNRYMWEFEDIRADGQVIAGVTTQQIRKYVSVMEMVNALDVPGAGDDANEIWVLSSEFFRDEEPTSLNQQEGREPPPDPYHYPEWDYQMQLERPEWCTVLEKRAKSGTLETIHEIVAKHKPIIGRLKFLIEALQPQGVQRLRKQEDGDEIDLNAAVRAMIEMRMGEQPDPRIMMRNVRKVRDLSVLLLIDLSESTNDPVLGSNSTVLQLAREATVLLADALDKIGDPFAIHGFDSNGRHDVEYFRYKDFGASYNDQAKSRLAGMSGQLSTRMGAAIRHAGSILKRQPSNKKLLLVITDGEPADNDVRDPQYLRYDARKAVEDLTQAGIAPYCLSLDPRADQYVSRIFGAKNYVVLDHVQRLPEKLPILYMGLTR
T8 sequence (B7JB17 entry or part of it): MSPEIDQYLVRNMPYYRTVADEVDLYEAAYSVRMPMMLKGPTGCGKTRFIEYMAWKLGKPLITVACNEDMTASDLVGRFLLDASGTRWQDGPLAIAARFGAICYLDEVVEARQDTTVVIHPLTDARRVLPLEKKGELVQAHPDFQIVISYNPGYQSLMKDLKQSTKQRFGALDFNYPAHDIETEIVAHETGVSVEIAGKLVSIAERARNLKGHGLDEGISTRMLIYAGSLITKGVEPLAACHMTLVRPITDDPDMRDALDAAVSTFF
Briefly: ATPase, coupled spectrophotometric assay. It is filed as biochemical. The note with it: 0.27 µM oligomer, 25 °C.

In experiment [12] the target is A. ferrooxidans carboxysomal form IA^C rubisco with N472H in the large subunit (Acidithiobacillus ferrooxidans ATCC23270).
Experiment [13] deals with A. ferrooxidans carboxysomal form IA^C rubisco with the last three residues of the large subunit changed from VNR to AHK (Acidithiobacillus ferrooxidans ATCC23270).
The target in experiment [14] is A. ferrooxidans carboxysomal form IA^C rubisco with N472H in the large subunit (Acidithiobacillus ferrooxidans ATCC23270). The source holds these as a separate data set.
Experiment [15] addresses A. ferrooxidans carboxysomal form IA^C rubisco with the last three residues of the large subunit changed from VNR to AHK (Acidithiobacillus ferrooxidans ATCC23270). The source holds these as a separate data set.

T1 sequence (O85040 whole entry): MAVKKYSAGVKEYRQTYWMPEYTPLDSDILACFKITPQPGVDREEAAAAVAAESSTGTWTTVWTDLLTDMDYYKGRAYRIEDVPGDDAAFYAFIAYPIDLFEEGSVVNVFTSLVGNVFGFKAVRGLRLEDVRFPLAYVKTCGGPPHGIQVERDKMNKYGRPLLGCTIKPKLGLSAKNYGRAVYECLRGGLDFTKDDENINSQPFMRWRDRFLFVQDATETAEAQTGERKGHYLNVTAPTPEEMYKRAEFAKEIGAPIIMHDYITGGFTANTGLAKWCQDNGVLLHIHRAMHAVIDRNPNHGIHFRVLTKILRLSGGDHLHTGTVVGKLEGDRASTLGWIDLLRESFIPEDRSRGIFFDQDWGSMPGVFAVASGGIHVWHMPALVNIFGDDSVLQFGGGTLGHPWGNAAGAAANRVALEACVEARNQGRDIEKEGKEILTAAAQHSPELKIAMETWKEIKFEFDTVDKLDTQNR
T1 sequence (P45686 whole entry partner): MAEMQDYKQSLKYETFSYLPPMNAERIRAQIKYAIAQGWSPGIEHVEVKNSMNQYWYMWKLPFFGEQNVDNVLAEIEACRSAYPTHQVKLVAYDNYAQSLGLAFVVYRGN
T2 sequence (B7JB30 whole entry V471A/N472H/R473K): as the sequence (B7JB30 whole entry) above, with V471A, N472H, R473K counted along it
T2 sequence (B7JB29 entry or part of it, stated change not applied, further chain): as the sequence (B7JB29 1-110 partner) above

As to `O=C(O)[C@@](O)(COP(=O)(O)O)[C@H](O)[C@H](O)COP(=O)(O)O` (mixture of isomers) [carboxy-arabinitol 1,5-bisphosphate], the “inhibited ECM-CABP (ECMC) complex, reactivation by CbbQO activase, coupled spect” value is listed as “HnQO was able to remove CABP from its cognate form IA^C rubisco HnLS” in experiment [1], “mutation at the C terminus of AfL2S2 enhances activation of ECMC complexes by Q1O1” in experiment [2], “ability to remove the transition state analog CABP from the A. ferrooxidans form IA^C (AfL2S2) holoenzyme” in experiment [3] and “mutation at the C terminus of AfL2S2 enhances activation of ECMC complexes by Q1O1” in [4].

Consider `O=C(COP(=O)(O)O)[C@H](O)[C@H](O)COP(=O)(O)O` [ribulose 1,5-bisphosphate], for which the “spontaneous RuBP release from ER complex” value was “displayed similar carboxylation kinetics and spontaneous RuBP release under our assay conditions” in experiment [5]; “displayed similar carboxylation kinetics and spontaneous RuBP release under our assay conditions” in experiment [9]. Further, the RuBP release rate result at SynLS (form IB rubisco) was “the very loose RuBP-binding phenotype of the cyanobacterial form IB SynLS rubisco”; in [6] it was “The RuBP release rate was derived from the ER time courses”; in experiment [7], “The RuBP release rate was derived from the ER time courses”; in experiment [8], “(AfL1S1) formed a stable binary complex with RuBP and had the slowest inhibitor release rate”.

For the compound `Nc1ncnc2c1ncn2[C@@H]1O[C@H](COP(=O)(O)OP(=O)(O)OP(=O)(O)O)[C@@H](O)[C@H]1O` [ATP], the “ATPase, coupled spectrophotometric assay” value in [10] and in experiment [11] was “The ATPase activity of the purified AfQ3O3 complex was similar to that of the AfQ1O1” each time.

As for “A. ferrooxidans CbbQ1-CbbO1 rubisco activase complex (form IA^Q associated)”, the Rca activity: activation of CABP-inhibited rubisco (ECMC), coupled spectrophotometric rubisco assay, 5% v/v PEG, 20 mM NaHCO3; against wildtype AfL2S2 in experiment [12] and in [13] was 6 fold each time.

Regarding “A. ferrooxidans CbbQ3-CbbO3 rubisco activase complex (carboxysomal, form IA^C associated)”, the values for the Rca activity: activation of CABP-inhibited rubisco (ECMC), coupled spectrophotometric rubisco assay, 13% v/v PEG, 20 mM NaHCO3; against wildtype AfL2S2 in experiment [14] and in experiment [15] were 30 % increase and 60 % reduction, respectively.
